Test system: IL-2 production in Jurkat cell
Assay: Jurkat IL-2 Production Assay
Format: cell-based
Settings: Homo sapiens, Jurkat cell (ATCC), 18-20 h incubation, serum/stimulant condition (1% FBS/PHA or 30% FBS/PMA-ionomycin) not given
Method: Jurkat IL-2 Production Assay
Jurkat cell (ATCC) was grown in RPMI 1640 with 10% FBS and 1% penicillin/streptomycin. The cell density was kept at 1.2˜1.8×10^6/mL in culture flask before seeding into culture plate, and the cell density in the plate was 0.5×10^6/[…]/well.
RPMI 1640 with 1% FBS or 30% FBS for high serum assay.
serial dilution was done in 100% DMSO, and intermediate dilution was done with RPMI 1640 medium with 1% FBS. The DMSO final concentration in culture well was 0.25%.
PHA (Sigma#L9017-10MG) was used for the assay with 1% FBS in culture medium, and added after 10 minutes exposure of cell to compound/DMSO. The PHA final concentration in culture well was 5 μg/mL. PMA (Sigma# P-8139 5MG)/Ionomycin (Sigma# I0634-5MG) was used for the assay with 30% FBS in culture medium, and added at same time point as the 1% FBS culture assay. The final concentration of PMA was 50 ng/mL, and Ionomycin final concentration was 500 ng/mL.
at 37° C. with 5% CO2 and 95% humidity for 18 h ˜20 h.
IC50 was calculated with the data analysis software XLfit4, General Pharmacology model 251.

Structure (SMILES) | IC50 [nM]
Cc1cc(Cl)ncc1-c1ccc2[nH]c(-c3c(F)cccc3Cl)cc2n1 [Example 2, 2-(2-Chloro-6-fluoro-phenyl)-5-(6-chloro-4-methyl-pyridin-3-yl)-1H-pyrrolo[3,2b]pyridine] | 246
Cn1nc(C(F)(F)F)cc1-c1ccc2[nH]c(-c3c(F)cccc3Cl)cc2n1 [Example 3, 2-(2-Chloro-6-fluoro-phenyl)-5-(2-methyl-5-trifluoromethyl-2H-pyrazol-3-yl)-1H-pyrrolo[3,2-b]pyridine] | 94
Cc1cc(C(F)(F)F)ccc1-c1ccc2[nH]c(-c3c(F)cccc3Cl)cc2n1 [Example 4, 2-(2-chloro-6-fluorophenyl)-5-(2-methyl-4-(trifluoromethyl)phenyl)-1H-pyrrolo[3,2-b]pyridine] | 80
Cc1cc(C#N)ccc1-c1ccc2[nH]c(-c3c(F)cccc3Cl)cc2n1 [Example 5, 4-(2-(2-chloro-6-fluorophenyl)-1H-pyrrolo[3,2-b]pyridin-5-yl)-3-methylbenzonitrile] | 347
Cc1cc(S(=O)(=O)N(C)C)ccc1-c1ccc2[nH]c(-c3c(F)cccc3Cl)cc2n1 [Example 6, 4-(2-(2-chloro-6-fluorophenyl)-1H-pyrrolo[3,2-b]pyridin-5-yl)-N,N,3-trimethylbenzenesulfonamide] | 92
Cc1cc(S(=O)(=O)N(C)C)ccc1-c1ccc2[nH]c(-c3ccccc3Cl)cc2n1 [Example 7, 4-[2-(2-Chloro-phenyl)-1H-pyrrolo[3,2-b]pyridin-5-yl]-3,N,N-trimethyl-benzenesulfonamide] | 300

Other lines, results leading:

IC50 [nM] | Structure (SMILES)
147 | Cn1nc(C(F)(F)F)cc1-c1ccc2[nH]c(-c3ccc(F)cc3Cl)cc2n1 [Example 8, 2-(2-Chloro-4-fluoro-phenyl)-5-(2-methyl-5-trifluoromethyl-2H-pyrazol-3-yl)-1H-pyrrolo[3,2-b]pyridine]
98 | Cc1cc(S(=O)(=O)N(C)C)ccc1-c1ccc2[nH]c(-c3ccc(F)cc3Cl)cc2n1 [Example 9, 4-[2-(2-Chloro-4-fluoro-phenyl)-1H-pyrrolo[3,2-b]pyridin-5-yl]-3,N,N-trimethyl-benzenesulfonamide]
134 | Cc1cc(S(=O)(=O)N(C)C)ccc1-c1ccc2[nH]c(-c3c(F)cccc3F)cc2n1 [Example 10, 4-[2-(2,6-Difluoro-phenyl)-1H-pyrrolo[3,2-b]pyridin-5-yl]-3,N,N-trimethyl-benzenesulfonamide]
767 | Cc1cc(C#N)ccc1-c1ccc2[nH]c(-c3c(F)cccc3F)cc2n1 [Example 11, 4-[2-(2,6-Difluoro-phenyl)-1H-pyrrolo[3,2-b]pyridin-5-yl]-3-methyl-benzonitrile]
200 | Cn1nc(C(F)(F)F)cc1-c1ccc2[nH]c(-c3c(F)cccc3F)cc2n1 [Example 12, 2-(2,6-Difluoro-phenyl)-5-(2-methyl-5-trifluoromethyl-2H-pyrazol-3-yl)-1H-pyrrolo[3,2-b]pyridine]
169 | COc1cc(F)c(-c2cc3nc(-c4ccc(S(=O)(=O)N(C)C)cc4C)ccc3[nH]2)c(F)c1 [Example 13, 4-(2-(2,6-difluoro-4-methoxyphenyl)-1H-pyrrolo[3,2-b]pyridin-5-yl)-N,N,3-trimethylbenzenesulfonamide]

Reference: US20130158066A1, “4-AZAINDOLE INHIBITORS OF CRAC” (Hoffmann-La Roche Inc., priority 2011, published 2013)
